Some results are limits rather than exact numbers.

For one series, the system named is HCC827. Put plainly: Antiproliferative activity against human HCC827 cells harboring EGFR exon del 19 mutant assessed as reduction in cell viability measured after 72 hrs by MTT assay. The format is functional, cell-based. The following applies: HCC827, 72 h.
A further series relates to NCI-H1975. Put plainly: Antiproliferative activity against human NCI-H1975 cells harboring EGFR L858R/T790M mutant assessed as reduction in cell viability measured after 72 hrs by MTT assay. The format is functional, cell-based. Conditions: NCI-H1975, 72 h.
Series [1] in a line: Cytotoxicity against human A-431 cells harboring wild type EGFR assessed as reduction in cell viability measured after 72 hrs by MTT assay. Type of series: toxicity, cell-based.
Series [2] in a line: Cytotoxicity against human A549 cells harboring wild type EGFR assessed as reduction in cell viability measured after 72 hrs by MTT assay. Type of series: toxicity, cell-based.

Consider `C=CC(=O)Nc1cccc(Nc2nc(Nc3ccc(N4CCN(C)CC4)cc3)nc3c2CCN(C(=O)OCc2ccccc2)C3)c1`, for which the IC50 with HCC827 and in the series with NCI-H1975 was above 10 µM each time. For the same molecule, the IC50 at 72 h in series [1] and in series [2] was above 10 µM each time.
With `C=CC(=O)Nc1cccc(Nc2nc(Nc3ccc(N4CCN(C)CC4)cc3)nc3ccc([N+](=O)[O-])cc23)c1`, the IC50 in the series on HCC827 was 3.7 µM; with NCI-H1975, 6.36 µM. For the same molecule, the IC50 at 72 h in series [1] and in series [2] was above 10 µM each time.
For the molecule `C=CC(=O)Nc1cccc(Nc2nc(Nc3ccc(N4CCC(N(C)C)CC4)cc3OC)nc3ccc(F)cc23)c1`, the IC50 in the series with HCC827 is 1.08 µM; in the series on NCI-H1975 it was 2.43 µM. The IC50 at 72 h in series [1] and in series [2] was above 10 µM throughout.
`CN1CCN(c2ccc(Nc3nc(Nc4cccc(NC(=O)/C=C/c5ccccc5)c4)c4cc(Cl)ccc4n3)cc2)CC1`: the IC50 with HCC827 amounted to 1.01 µM; in the series on NCI-H1975, 2.31 µM. Moreover, the results for the IC50 at 72 h in series [1] and in series [2] were 3.22 µM and above 10 µM, respectively.
The like results for `C=CC(=O)Nc1cccc(Nc2nc(Nc3ccc(N4CCC(N5CCOCC5)CC4)cc3OC)nc3ccc(F)cc23)c1` were, in that order, 3.93 µM, 4.62 µM, above 10 µM and above 10 µM.
The like results for `CCC(=O)Nc1cccc(Nc2nc(Nc3ccc(N4CCN(C)CC4)cc3)nc3ccc(Cl)cc23)c1` were, in that order, 6.48 µM, 7.33 µM, above 10 µM and above 10 µM.
Regarding `C=CC(=O)Nc1cccc(Nc2nc(Nc3ccc(N4CCN(C)CC4)cc3OC)nc3ccc(F)cc23)c1`, the IC50 in the series with HCC827 turned out to be 0.098 µM; with NCI-H1975, 0.234 µM. The results for the concentration for half-maximal inhibition (IC50) at 72 h in series [1] and in series [2] were 3.25 µM and 1.52 µM, respectively.
The like results for `C=CC(=O)Nc1cccc(Nc2nc(Nc3ccc(N4CCC(N5CCOCC5)CC4)cc3OC)nc3ccc(Cl)cc23)c1` were, in that order, 4.59 µM, 5.24 µM, above 10 µM and above 10 µM.
For `C=CC(=O)Nc1cccc(Nc2nc(Nc3ccc(N4CCN(C)CC4)cc3)nc3ccc(C)cc23)c1`, the figures for the IC50 with HCC827 and in the series with NCI-H1975 were 1.55 µM and 1.98 µM, respectively. Further, the IC50 at 72 h in series [1] was 1.1 µM; in series [2], 2.31 µM.
The corresponding values for `C=CC(=O)Nc1cccc(Nc2nc(Nc3ccc(N4CCOCC4)cc3)nc3ccc(F)cc23)c1` are 1.39 µM, 2.02 µM, above 10 µM and 8.52 µM.
For the molecule `C=CC(=O)Nc1cccc(Nc2nc(Nc3ccc(N4CCN(C)CC4)cc3)nc3ccc(C(F)(F)F)cc23)c1`, the IC50 is 4.68 µM in the series with HCC827 and 4.76 µM in the series with NCI-H1975. In addition, the IC50 at 72 h in series [1] is 7.64 µM; in series [2], above 10 µM.
As to `CC(C)=CC(=O)Nc1cccc(Nc2nc(Nc3ccc(N4CCN(C)CC4)cc3)nc3ccc(Cl)cc23)c1`, the concentration for half-maximal inhibition (IC50) was determined as 0.884 µM in the series on HCC827 and 0.874 µM in the series on NCI-H1975. For the same molecule, the IC50 at 72 h is 3.29 µM in series [1] and 5.33 µM in series [2].
Take `C=CC(=O)Nc1cccc(Nc2nc(Nc3ccc(N4CCN(C)CC4)cc3)nc3ccccc23)c1`: the IC50 with HCC827 and in the series on NCI-H1975 was 2.32 µM throughout. Further, the IC50 at 72 h in series [1] amounted to 6.79 µM; in series [2], 9.85 µM.
`C=CC(=O)Nc1cccc(Nc2nc(Nc3ccc(N4CCC(N5CCN(C)CC5)CC4)cc3)nc3ccc(Cl)cc23)c1`: the IC50 in the series with HCC827 was 0.025 µM; in the series on NCI-H1975, 0.028 µM. Moreover, the IC50 at 72 h in series [1] was 1.62 µM; in series [2] it was 2.1 µM.
`C=CC(=O)Nc1cccc(Nc2nc(Nc3ccc(N(C)CCN(C)C)cc3)nc3ccc(F)cc23)c1`: the IC50 was 0.85 µM in the series with HCC827 and 1.79 µM in the series with NCI-H1975. The results for the IC50 at 72 h in series [1] and in series [2] were 3.15 µM and 2.57 µM, respectively.
As to `C=CS(=O)(=O)Nc1cccc(Nc2nc(Nc3ccc(N4CCN(C)CC4)cc3)nc3ccc(Cl)cc23)c1`, the IC50 is 1.49 µM in the series with HCC827 and 1.03 µM in the series on NCI-H1975. Moreover, the IC50 at 72 h in series [1] was 8.77 µM; in series [2], above 10 µM.
The like results for `C=CC(=O)Nc1cccc(Nc2nc(Nc3ccc(N4CCN(C)CC4)cc3)nc3ccc(I)cc23)c1` were, in that order, 4.59 µM, 5.76 µM, above 10 µM and above 10 µM.
The like results for `C=CC(=O)Nc1cccc(Nc2nc(Nc3ccc(N4CCN(C)CC4)cc3)nc3c(Cl)cccc23)c1` were, in that order, 4.64 µM, 5.63 µM, above 10 µM and above 10 µM.
The corresponding values for `C=CC(=O)Nc1cccc(Nc2nc(Nc3ccc(N4CCC(N(C)C)CC4)cc3)nc3ccc(F)cc23)c1` are 0.056 µM, 0.165 µM, 1.84 µM and 1.26 µM.
With `C=CC(=O)Nc1cccc(Nc2nc(Nc3ccc(N4CCN(C)CC4)cc3)nc3cc(OC)ccc23)c1`, the IC50 worked out at 4.31 µM with HCC827 and 7.84 µM with NCI-H1975. For the same molecule, the IC50 at 72 h in series [1] and in series [2] was above 10 µM throughout.
In the case of `C=CC(=O)Nc1cccc(Nc2nc(Nc3ccc(N(C)CCN(C)C)cc3OC)nc3ccc(F)cc23)c1`, the IC50 is 6.58 µM with HCC827 and 8.75 µM in the series with NCI-H1975. The IC50 at 72 h in series [1] and in series [2] was above 10 µM each time.
For the molecule `C=CC(=O)Nc1cccc(Nc2nc(Nc3ccc(N4CCC(N5CCOCC5)CC4)cc3)nc3ccc(F)cc23)c1`, the IC50 in the series with HCC827 was determined as 2.3 µM; in the series with NCI-H1975 it was 1.6 µM. For the same molecule, the IC50 at 72 h in series [1] came to 7.59 µM; in series [2], 5.9 µM.
As for `C=CC(=O)Nc1cccc(Nc2nc(Nc3ccc(N(C)CCN(C)C)cc3OC)nc3ccc(Cl)cc23)c1`, the values for the IC50 in the series on HCC827 and in the series on NCI-H1975 were 5.98 µM and 6.84 µM, respectively. Besides, the IC50 at 72 h in series [1] and in series [2] was above 10 µM each time.
`C=CC(=O)Nc1cccc(Nc2nc(Nc3ccc(N4CCN(C)CC4)cc3)nc3cc(Cl)ccc23)c1`: the IC50 in the series on HCC827 worked out at 1.85 µM; in the series with NCI-H1975, 3.28 µM. The IC50 at 72 h in series [1] is 7.62 µM; in series [2] it was 5.79 µM.
In the case of `C=CC(=O)Nc1cccc(Nc2nc(Nc3ccc(N4CCC(N5CCN(C)CC5)CC4)cc3OC)nc3ccc(Cl)cc23)c1`, the IC50 is 1.68 µM in the series on HCC827 and 1.36 µM in the series on NCI-H1975. For the same molecule, the IC50 at 72 h is 6.6 µM in series [1] and above 10 µM in series [2].
For the molecule `C=CC(=O)Nc1cccc(Nc2nc(Nc3ccc(N4CCN(C)CC4)cc3)nc3c(F)cccc23)c1`, the figures for the IC50 in the series on HCC827 and with NCI-H1975 were 2.34 µM and 5.48 µM, respectively. The half-inhibitory concentration (IC50) at 72 h in series [1] and in series [2] was above 10 µM throughout.
With `C=CC(=O)Nc1cccc(Nc2nc(Nc3ccc(N4CCC(N5CCN(C)CC5)CC4)cc3)nc3ccc(F)cc23)c1`, the IC50 amounted to 0.018 µM with HCC827 and 0.024 µM in the series on NCI-H1975. Further, the IC50 at 72 h in series [1] worked out at 1.69 µM; in series [2] it was 1.52 µM.
For `C=CC(=O)Nc1cccc(Nc2nc(Nc3ccc(N4CCN(C)CC4)cc3)nc3c2CN(C(=O)OC(C)(C)C)CC3)c1`, the IC50 in the series on HCC827 was 7.81 µM; in the series with NCI-H1975 it was 8.65 µM. The IC50 at 72 h in series [1] and in series [2] was above 10 µM throughout.
`C=CC(=O)Nc1cccc(Nc2nc(Nc3ccc(N4CCN(C)CC4)cc3)nc3ccc(Br)cc23)c1`: the IC50 in the series with HCC827 came to 1.9 µM; in the series with NCI-H1975, 2.63 µM. For the same molecule, the half-maximal inhibitory concentration (IC50) at 72 h is 5.42 µM in series [1] and 8.71 µM in series [2].
For `C=CC(=O)Nc1cccc(Nc2nc(Nc3ccc(N4CCC(N(C)C)CC4)cc3OC)nc3ccc(Cl)cc23)c1`, the IC50 in the series on HCC827 was 0.159 µM; with NCI-H1975, 0.561 µM. Besides, the IC50 at 72 h came out at 5.8 µM in series [1] and 3.59 µM in series [2].
Regarding `C=CC(=O)Nc1cccc(Nc2nc(Nc3ccc(N4CCN(C)CC4)cc3)nc3cccc(F)c23)c1`, the IC50 in the series with HCC827 is 0.784 µM; in the series with NCI-H1975, 1 µM. Further, the results for the IC50 at 72 h in series [1] and in series [2] were 1.84 µM and 2.31 µM, respectively.
Regarding `C=CC(=O)Nc1cccc(Nc2nc(Nc3ccc(N4CCN(C)CC4)cc3)nc3cc(F)ccc23)c1`, the IC50 was 1.04 µM in the series on HCC827 and 2.34 µM in the series with NCI-H1975. The IC50 at 72 h amounted to 9.04 µM in series [1] and 7.81 µM in series [2].
`C=CC(=O)Nc1cccc(Nc2nc(Nc3ccc(N(C)CCN(C)C)cc3)nc3ccc(Cl)cc23)c1`: the IC50 with HCC827 is 0.95 µM; with NCI-H1975, 1.24 µM. Moreover, the IC50 at 72 h in series [1] is 2.89 µM; in series [2] it was 2.3 µM.
`C=CC(=O)Nc1cccc(Nc2nc(Nc3ccc(N4CCN(C)CC4)cc3OC)nc3ccc(Cl)cc23)c1`: the IC50 in the series on HCC827 amounted to 0.12 µM; in the series on NCI-H1975, 0.321 µM. Besides, the IC50 at 72 h in series [1] was found to be 2.42 µM; in series [2] it was 3.52 µM.
As for `C=CC(=O)Nc1cccc(Nc2nc(Nc3ccc(N4CCC(N5CCN(C)CC5)CC4)cc3OC)nc3ccc(F)cc23)c1`, the IC50 came out at 1.06 µM with HCC827 and 1.02 µM in the series with NCI-H1975. Moreover, the IC50 at 72 h in series [1] is above 10 µM; in series [2], 8.95 µM.
Consider `C=CC(=O)Nc1cccc(Nc2nc(Nc3ccc(N4CCC(N(C)C)CC4)cc3)nc3ccc(Cl)cc23)c1`, for which the IC50 in the series on HCC827 was 0.065 µM; in the series on NCI-H1975 it was 0.174 µM. In addition, the IC50 at 72 h in series [1] amounted to 2.02 µM; in series [2] it was 1.83 µM.
In the case of `C=CC(=O)Nc1ccc(Nc2nc(Nc3ccc(N4CCN(C)CC4)cc3)nc3ccc(Cl)cc23)cc1`, the IC50 with HCC827 was determined as 1.28 µM; in the series with NCI-H1975 it was 2.32 µM. Also, the IC50 at 72 h in series [1] and in series [2] was above 10 µM throughout.
For `C=CC(=O)Nc1cccc(Nc2nc(Nc3ccc(N4CCN(C)CC4)cc3)nc3c2CCN(C(=O)OC(C)(C)C)C3)c1`, the IC50 with HCC827 and in the series with NCI-H1975 was above 10 µM in each case. Also, the IC50 at 72 h in series [1] and in series [2] was above 10 µM throughout.

The values above are taken from ChEMBL document CHEMBL5380860, “Design, Synthesis, and Antitumor Activity of Potent and Selective EGFR L858R/T790M Inhibitors and Identification of a Combination Therapy to Overcome Acquired Resistance in Models of Non-small-cell Lung Cancer” (J Med Chem, 2023).
